We go through six compounds from patent US20210284618A1, “FURANOCHALCONES AS INHIBITORS OF CYP1A1, CYP1A2 AND CYP1B1 FOR CANCER CHEMOPREVENTION” (Council of Scientific & Industrial Research, priority 2016, published 2021).

Data set [1] addresses T1, CYP1B1 (Homo sapiens, UniProt Q16678).
T1 sequence (Q16678 1-543): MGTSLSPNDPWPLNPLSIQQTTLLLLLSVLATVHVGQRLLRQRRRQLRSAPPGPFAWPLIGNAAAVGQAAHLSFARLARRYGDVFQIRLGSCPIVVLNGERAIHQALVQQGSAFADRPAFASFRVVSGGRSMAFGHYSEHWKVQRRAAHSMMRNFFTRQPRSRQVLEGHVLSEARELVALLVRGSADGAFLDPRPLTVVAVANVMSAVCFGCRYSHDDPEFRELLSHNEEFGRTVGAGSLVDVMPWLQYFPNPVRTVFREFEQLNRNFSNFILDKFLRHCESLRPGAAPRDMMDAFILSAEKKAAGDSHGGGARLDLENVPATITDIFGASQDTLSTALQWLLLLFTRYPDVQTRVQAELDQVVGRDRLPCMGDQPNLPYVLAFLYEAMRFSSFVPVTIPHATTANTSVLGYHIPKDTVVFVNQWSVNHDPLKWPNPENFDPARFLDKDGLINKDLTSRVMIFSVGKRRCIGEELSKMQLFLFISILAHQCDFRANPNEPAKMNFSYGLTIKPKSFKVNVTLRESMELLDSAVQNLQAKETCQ
Briefly: CYP1B1 inhibition in live human cells (HEK293). In kind it is cell-based.

Data set [2] concerns the target T2, CYP1A1 (Homo sapiens, UniProt P04798).
T2 construct: host or cells: yeast microsomes (Saccharosomes)
T2 sequence (P04798 1-512): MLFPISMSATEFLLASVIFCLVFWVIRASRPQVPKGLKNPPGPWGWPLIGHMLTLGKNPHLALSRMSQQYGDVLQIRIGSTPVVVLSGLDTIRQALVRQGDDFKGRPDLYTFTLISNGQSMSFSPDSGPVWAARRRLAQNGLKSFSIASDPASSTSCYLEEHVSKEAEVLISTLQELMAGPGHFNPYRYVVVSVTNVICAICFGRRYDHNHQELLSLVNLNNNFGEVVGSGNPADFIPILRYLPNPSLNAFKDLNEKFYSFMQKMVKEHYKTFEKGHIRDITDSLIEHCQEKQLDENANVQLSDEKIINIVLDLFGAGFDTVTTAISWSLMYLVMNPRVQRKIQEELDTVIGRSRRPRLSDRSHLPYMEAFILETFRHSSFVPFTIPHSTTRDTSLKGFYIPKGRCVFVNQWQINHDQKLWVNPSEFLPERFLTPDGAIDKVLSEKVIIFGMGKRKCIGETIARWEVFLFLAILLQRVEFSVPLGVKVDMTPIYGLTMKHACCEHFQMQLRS
Briefly: CYP1A1 inhibition in HEK293 cells transfected with pcDNA3.1/CYP1A1 (live cells). The conditions noted are these: for inhibition at 10 μM: human, HEK293 cells transfected with pcDNA3.1/CYP1A1 (live cells), probe EROD (5 μM), % inhibition of CYP1A1 in HEK293 cells at 10 μM, 5 μM EROD. In kind it is cell-based. As for the experimental part: Example 26. In-vitro CYP450 inhibition in HEK293 cells transfected with pcDNA3.1/CYP1A1 against 5 μM EROD. […] The HEK293 cells used here was procured from ‘European Collection of Authenticated Cell Cultures’ (catalog number. ECACC 85120602).

Data set [3] addresses T1, CYP1B1. Description: In-vitro CYP450 1B1 enzyme inhibition in Saccharosomes. Format: biochemical. Further details: purchased CYP Design Ltd; host or cells: yeast microsomes (Saccharosomes). The conditions noted are these: human, Saccharosomes (yeast-derived) with recombinant CYP1B1, probe 7-ethoxyresorufin (5 μl of 0.1 mM), % inhibition of CYP1B1 in Saccharosomes at 10 μM, 10 μM test compound, 7-ethoxyresorufin. As for the experimental part:
Example 24. In-vitro CYP450 1B1 enzyme inhibition in Saccharosomes™: Regenerating system consists of: 5 μl Solution A (183 mg of NADP++183 mg of glucose-6-phosphate+654 μl of 1.0 M magnesium chloride solution+9.15 ml of sterile ultra-pure water)+1 μl Solution B (250 Units of glucose-6-phosphate dehydrogenase+6.25 ml of 5 mM sodium citrate; mixed in a tube and made up to 10 ml with sterile ultra-pure water)+39 μl 0.2 M Kpi (0.6 ml of 1.0M K2HPO4+9.4 ml of 1.0 M KH2PO4 were mixed and made up to 50 ml with sterile ultra-pure water)+5 μl potential inhibitory compound.
(§1) Example 25. IC50 determination for best compound against CYP1A1, CYP1B1 and other CYPs in Saccharosomes. Compounds were serially diluted to six different concentrations with 10% DMSO in a Sero-Well white microplate. The experiment was performed in a similar way as described above in examples 23 and 24.

For data set [4], the target named is T2, CYP1A1. Briefly: In-vitro CYP450 1A1 enzyme inhibition in Saccharosomes. As to conditions: human, Saccharosomes containing CYP1A1, pH 7.4, probe ethoxyresorufin (5 μM), % inhibition of CYP1A1 in Saccharosomes at 10 μM, 10 μM test compound, 5 μM ethoxyresorufin. Format: biochemical. As for the experimental part: Example 23. In-vitro CYP450 1A1 enzyme inhibition in Saccharosomes™: The screening method utilizes 384-well microplates to rapidly ascertain relative percentage inhibition of CYP1A1 by a library of compounds. Each reaction was performed in black, clear-bottomed 384-well microplates. A reaction volume of 50 μl comprised of 0.5 pmol of the cytochrome P450 CYP1A1 (Saccharosomes), 5 μM of ethoxyresorufin substrate (which contributes 0.05% DMSO to the well), 10 μM of potential inhibitor test article (which contributes 0.5% DMSO to the well), A P450 reductase NADPH regenerating system (1.3 mM NADP+, 3.3 mM glucose-6-0.02 units phosphate and glucose-6-Phosphate dehydrogenase), potassium phosphate buffer (final well concentration 100 mM, pH 7.4) and water. Very small quantities of magnesium chloride and sodium citrate are added to the NADPH regenerating system, in line with standard published protocols. The potential inhibitor (test article) was pre-incubated with CYP1A1 of at least 20 minutes at 30° C. After this period, the remainder of the reagents required in the assay was added to initiate the process. The reaction mixture was incubated for another 20 minutes at 30° C. The reaction was stopped by adding an 80% acetonitrile, 20% 0.5 M Tris solution. The reactions were monitored using the Biotek Synergy HT plate reader by measuring the endpoint reaction at Excitation 530/(25 bandwidth) & Emission 590/(20 bandwidth) using a gain/sensitivity setting of 60. The mean of the quadruplicates of the negative control (solvent inactivated CYP1A1) was deducted from the mean of potential inhibitor (test article) samples. The percentage was then derived relative to the mean of the wells without inhibitor.
as §1

In the case of `COc1c(C(=O)/C=C/c2ccc(F)cc2)c(O)c(OC)c2occc12` [Compound 6, 3-(4,7-dimethoxy-6-hydroxybenzofuran-5-yl)-1-(4-fluorophenyl)-3-oxopropene], the values for the half-inhibitory concentration (IC50) in data set [1] and in data set [2] were 1320 nM and 480 nM, respectively. Moreover, the inhibition at 10 μM in data set [2] was determined as 79.6%; in data set [3] it was 49.5%. Moreover, the inhibition at 20 min, 10 μM in data set [4] is over 80%.

The compound `COc1ccc(/C=C/C(=O)c2c(O)c(OC)c3occc3c2OC)cc1` [Compound 9, 3-(4,7-dimethoxy-6-hydroxybenzofuran-5-yl)-1-(4-methoxyphenyl)-3-oxopropene] yielded a melting point of 198 to 199 °C. In data set [2], the inhibition at 10 μM turned out to be 55.7%. The inhibition at 20 min, 10 μM in data set [4] was determined as 28.9%.

Regarding `COc1c(C(=O)/C=C/c2c(Cl)cccc2Cl)c(O)c(OC)c2occc12` [Compound 10, 3-(4,7-dimethoxy-6-hydroxybenzofuran-5-yl)-1-(2,6-dichlorophenyl)-3-oxopropene], the melting point lay in the range of 298 to 299 °C. In data set [2], this compound displayed an inhibition at 10 μM of 58.8%. Besides, the inhibition at 20 min, 10 μM in data set [4] worked out at 19.6%.

`CCOc1ccc(Br)cc1/C=C/C(=O)c1c(O)c(OC)c2occc2c1OC` [Compound 11, 3-(4,7-dimethoxy-6-hydroxybenzofuran-5-yl)-1-(2-ethoxy,5-bromophenyl)-3-oxopropene] displayed a melting point of 260 to 261 °C. The same compound gave an inhibition at 10 μM in data set [2] of 31.7%. Moreover, in data set [4], the inhibition at 20 min, 10 μM came to 64.3%.

As to `COc1c(C(=O)/C=C/c2ccccc2Cl)c(O)c(OC)c2occc12` [Compound 12, 3-(4,7-dimethoxy-6-hydroxybenzofuran-5-yl)-1-(2-chlorophenyl)-3-oxopropene], the melting point was 160 to 161 °C. In data set [2], this compound returned an inhibition at 10 μM of 19.5%. Moreover, in data set [4], the inhibition at 20 min, 10 μM came to 23.6%.

`COc1c(C(=O)/C=C/c2c(F)c(F)c(F)c(F)c2F)c(O)c(OC)c2occc12` [Compound 15, 3-(4,7-dimethoxy-6-hydroxybenzofuran-5-yl)-1-(2,3,4,5,6 pentafluorophenyl)-3-oxopropene] displayed a melting point of 300 to 301 °C. In data set [2], this compound gave an inhibition at 10 μM of 71.6%. Further, in data set [4], the inhibition at 20 min, 10 μM is 21.9%.

In general, IC50 refers to the midpoint of a concentration-inhibition curve. A word on the inhibition: it is the share of the control response that was lost under treatment. Broadly, the melting point is the temperature, or range, at which the solid turns liquid.
